Target: T1, CysI (Pseudomonas aeruginosa, UniProt Q9I2Q7)
T1 construct: full orf with N-terminal hexahistidine tag (pSKcysI-N), E. coli BL21 (DE3) suf++ with pCDF-cysG; IMAC and SEC
T1 sequence (Q9I2Q7 1-552): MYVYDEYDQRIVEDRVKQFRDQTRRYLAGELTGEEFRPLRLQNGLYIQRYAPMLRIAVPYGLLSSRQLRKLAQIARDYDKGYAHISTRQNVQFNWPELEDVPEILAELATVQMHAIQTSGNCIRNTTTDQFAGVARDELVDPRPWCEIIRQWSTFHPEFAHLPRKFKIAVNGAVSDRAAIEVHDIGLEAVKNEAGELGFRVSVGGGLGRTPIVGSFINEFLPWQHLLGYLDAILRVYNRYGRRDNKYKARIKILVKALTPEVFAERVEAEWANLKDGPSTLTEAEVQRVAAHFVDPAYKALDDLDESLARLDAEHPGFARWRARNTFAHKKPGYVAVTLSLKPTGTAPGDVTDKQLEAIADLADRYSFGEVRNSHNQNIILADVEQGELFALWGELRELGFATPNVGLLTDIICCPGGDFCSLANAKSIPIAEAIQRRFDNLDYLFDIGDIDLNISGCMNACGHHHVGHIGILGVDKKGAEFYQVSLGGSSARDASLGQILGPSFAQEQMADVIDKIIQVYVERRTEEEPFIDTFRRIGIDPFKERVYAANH
Test: methyl viologen oxidation at […] nm
Assay type: biochemical
Conditions: anaerobic; methyl viologen as electron donor

Structure (SMILES): O=S(O)O [hydrogen sulphite]
- methyl viologen oxidation at 605 nm: Potassium nitrite and hydrogen sulphite were used as electron acceptors for NirA and CysI
